From patent US9102636B2, “Analgesic compounds, compositions, and uses thereof” (Galleon Pharmaceuticals, Inc., priority 2010, dated 2015)
Several values for one entry are separate records, joined by “and”; a condition that tells them apart may be missing. Identical values can stand only once. Counter-ions that a name gives are not always drawn. Each block holds one compound with its values, some of them ahead of it.

Legend:
[1] = system: Carrageenan-induced thermal hyperalgesia; experiment: Carrageenan-induced thermal hyperalgesia (Hargreaves); type: in vivo, rat; settings: indomethacin 30 mg/kg p.o. prior to carrageenan; for Paw withdrawal latency: cut-off 40 s, individual animals
Protocol: (§1) The effect of Compound 2 in the rat carrageenan model of acute inflammatory pain was evaluated. The intraplantar carrageenan model of acute inflammatory pain in the rat results in behaviors similar to that observed in patients and has been widely used to assess novel pharmacological treatments (Whiteside et al., 2005, J. Pharmacol. Exp. Ther. 314:1234-1240). The objective of this study was to evaluate the ability of Compound 2 to reverse or prevent development of thermal hyperalgesia and edema in the rat carrageenan model of acute inflammatory pain. The positive control was indomethacin (Sigma, St. Louis), and the negative control was vehicle (0.5% methyl cellulose). […] The Hargreaves apparatus was obtained from Ugo Basile, Italy, and the lamba-carrageenan was obtained from Sigma, St. Louis. For this assay, paw withdrawal latency to a thermal stimulus was assessed using a radiant heat source (Ugo Basile, Italy) aimed at the plantar surface of the left hind paw (Hargreaves test). […] Paw volume was measured by displacement of water and assuming a tissue density equal to that of water. Baseline latencies were taken prior to carrageenan administration and re-assessed 4 h later. Compound 2 or vehicle was administered (10 and 30 mg/kg, p.o.) 3 hrs after carrageenan (curative) and behavior assessed 1 hr later. […] Indomethacin (positive control, 30 mg/kg p.o.) was administered prior to carrageenan and behavior assessed 4 hrs post-carrageenan. […] After induction of anesthesia, the injection site was prepared in a sterile manner and 50 μl of a 2% Jamba-carrageenan was injected. After injection, animals were weighed and allowed to recover before being returned to their home cages. Statistical significance was determined on untransformed data using a two-way analysis of variance (Graphpad Prism, NC). Significant main effects were analyzed further by subsequent Bonferronni post-hoc test. The level of significance was set at p<0.05. Data are shown as mean±S.E.M. (with an asterisk to denote significance as compared to vehicle treated controls).

[2] = system: Carrageenan-induced edema; experiment: Carrageenan-induced edema (paw volume); type: in vivo, rat; settings: indomethacin 30 mg/kg p.o. prior to carrageenan; for Paw volume: individual animals
Protocol: as §1, with “later.” for “later. Compound 2 or vehicle was administered (10 and 30 mg/kg, p.o.) 3 hrs after carrageenan (curative) and behavior assessed 1 hr later.”

- melting point: 109 to 111 °C
SMILES: O=C(O)[C@@H]1CSC(Nc2ccc(F)cc2O)=N1 (as salt: HCl) [Compound 6, (R)-2-(4-Fluoro-2-hydroxyphenylamino)-thiazoline-4-carboxylic acid]

- melting point: 205 to 207 °C
SMILES: Cc1c(Cl)cc(NC2=N[C@H](C(=O)O)CS2)c(O)c1Cl (as salt: HCl) [Compound 8, (R)-2-(3,5-Dichloro-2-hydroxy-4-methylphenylamino)-thiazoline-4-carboxylic acid]

- melting point: 118 to 120 °C
SMILES: COC(=O)c1ccc(NC2=N[C@H](C(=O)O)CS2)c(O)c1 (as salt: HCl) [Compound 12, (R)-2-(2-Hydroxy-4-methoxycarbonylphenylamino)-thiazoline-4-carboxylic acid]

SMILES: COc1ccc2c(c1)c(CC(=O)O)c(C)n2C(=O)c1ccc(Cl)cc1 [Indo]
- Paw withdrawal latency ([1]; 4 hrs post-carrageenan (second line)): 17 s and 35 s and 26 s and 28 s and 40 s (2×)
- Paw withdrawal latency ([1]; baseline prior to carrageenan (first line)): 20 s and 40 s and 17 s and 32 s and 23 s and 24 s
- Paw volume ([2]; 4 hr post-drug): 2.5 mL and 2.4 mL and 2.3 mL (2×) and 2.2 mL and 1.8 mL
- Paw volume ([2]; Pre-Cg): 1.7 mL (2×) and 1.5 mL (2×) and 1.8 mL and 1.4 mL

SMILES: COc1ccc2c(c1)c(CC(=O)O)c(C)n2C(=O)c1ccc(Cl)cc1 [indomethacin, reference compound]
- carrageenan-induced thermal hyperalgesia, positive control preemptive ([1]; rat, 4 hrs post-carrageenan): statistically significant prevention
- carrageenan-induced edema, positive control preemptive ([2]; rat, 4 hrs post-carrageenan): statistically significant prevention
